Tests used:
[1] = tested on: A2780 ovarian cells; experiment: A2780 Ovarian Cell Proliferation Assay in Lipid Reduced Medium, without Palmitate; type: cell-based; conditions: Homo sapiens, A2780; lipid reduced medium, without palmitate, 96 h, MTT; read-out: Proliferation A2780 w/o Palmitate pIC50 (converted)
Summary of the method: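 A2780 cells were seeded in 10% FCS medium and switched next day to 10% lipid-reduced serum without palmitate. Compounds at 0.01–30 μM were added with 0.2% DMSO, 0.2% fatty-acid-free BSA and 0.25% ethanol final. After 96 h, MTT absorbance at 544 nm was normalized to plate controls, and IC50/pIC50 came from a 4-parameter logistic fit.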

[2] = biological target: T1, hFASN enzyme (full length) (Homo sapiens, UniProt P49327); experiment: Fatty Acid Synthase (FASN) Inhibition Scintillation Proximity Assay; type: biochemical; conditions: for IC50: mean where tested more than once, ~ = standard error of pIC50 larger than 0.5; for inhibition at 10 µM: read-out: FASN % Effect @1E−05M
T1 construct: 10 μL hFASN enzyme (full length, 300 ng, purified in house); made in house
T1 sequence (P49327 whole entry): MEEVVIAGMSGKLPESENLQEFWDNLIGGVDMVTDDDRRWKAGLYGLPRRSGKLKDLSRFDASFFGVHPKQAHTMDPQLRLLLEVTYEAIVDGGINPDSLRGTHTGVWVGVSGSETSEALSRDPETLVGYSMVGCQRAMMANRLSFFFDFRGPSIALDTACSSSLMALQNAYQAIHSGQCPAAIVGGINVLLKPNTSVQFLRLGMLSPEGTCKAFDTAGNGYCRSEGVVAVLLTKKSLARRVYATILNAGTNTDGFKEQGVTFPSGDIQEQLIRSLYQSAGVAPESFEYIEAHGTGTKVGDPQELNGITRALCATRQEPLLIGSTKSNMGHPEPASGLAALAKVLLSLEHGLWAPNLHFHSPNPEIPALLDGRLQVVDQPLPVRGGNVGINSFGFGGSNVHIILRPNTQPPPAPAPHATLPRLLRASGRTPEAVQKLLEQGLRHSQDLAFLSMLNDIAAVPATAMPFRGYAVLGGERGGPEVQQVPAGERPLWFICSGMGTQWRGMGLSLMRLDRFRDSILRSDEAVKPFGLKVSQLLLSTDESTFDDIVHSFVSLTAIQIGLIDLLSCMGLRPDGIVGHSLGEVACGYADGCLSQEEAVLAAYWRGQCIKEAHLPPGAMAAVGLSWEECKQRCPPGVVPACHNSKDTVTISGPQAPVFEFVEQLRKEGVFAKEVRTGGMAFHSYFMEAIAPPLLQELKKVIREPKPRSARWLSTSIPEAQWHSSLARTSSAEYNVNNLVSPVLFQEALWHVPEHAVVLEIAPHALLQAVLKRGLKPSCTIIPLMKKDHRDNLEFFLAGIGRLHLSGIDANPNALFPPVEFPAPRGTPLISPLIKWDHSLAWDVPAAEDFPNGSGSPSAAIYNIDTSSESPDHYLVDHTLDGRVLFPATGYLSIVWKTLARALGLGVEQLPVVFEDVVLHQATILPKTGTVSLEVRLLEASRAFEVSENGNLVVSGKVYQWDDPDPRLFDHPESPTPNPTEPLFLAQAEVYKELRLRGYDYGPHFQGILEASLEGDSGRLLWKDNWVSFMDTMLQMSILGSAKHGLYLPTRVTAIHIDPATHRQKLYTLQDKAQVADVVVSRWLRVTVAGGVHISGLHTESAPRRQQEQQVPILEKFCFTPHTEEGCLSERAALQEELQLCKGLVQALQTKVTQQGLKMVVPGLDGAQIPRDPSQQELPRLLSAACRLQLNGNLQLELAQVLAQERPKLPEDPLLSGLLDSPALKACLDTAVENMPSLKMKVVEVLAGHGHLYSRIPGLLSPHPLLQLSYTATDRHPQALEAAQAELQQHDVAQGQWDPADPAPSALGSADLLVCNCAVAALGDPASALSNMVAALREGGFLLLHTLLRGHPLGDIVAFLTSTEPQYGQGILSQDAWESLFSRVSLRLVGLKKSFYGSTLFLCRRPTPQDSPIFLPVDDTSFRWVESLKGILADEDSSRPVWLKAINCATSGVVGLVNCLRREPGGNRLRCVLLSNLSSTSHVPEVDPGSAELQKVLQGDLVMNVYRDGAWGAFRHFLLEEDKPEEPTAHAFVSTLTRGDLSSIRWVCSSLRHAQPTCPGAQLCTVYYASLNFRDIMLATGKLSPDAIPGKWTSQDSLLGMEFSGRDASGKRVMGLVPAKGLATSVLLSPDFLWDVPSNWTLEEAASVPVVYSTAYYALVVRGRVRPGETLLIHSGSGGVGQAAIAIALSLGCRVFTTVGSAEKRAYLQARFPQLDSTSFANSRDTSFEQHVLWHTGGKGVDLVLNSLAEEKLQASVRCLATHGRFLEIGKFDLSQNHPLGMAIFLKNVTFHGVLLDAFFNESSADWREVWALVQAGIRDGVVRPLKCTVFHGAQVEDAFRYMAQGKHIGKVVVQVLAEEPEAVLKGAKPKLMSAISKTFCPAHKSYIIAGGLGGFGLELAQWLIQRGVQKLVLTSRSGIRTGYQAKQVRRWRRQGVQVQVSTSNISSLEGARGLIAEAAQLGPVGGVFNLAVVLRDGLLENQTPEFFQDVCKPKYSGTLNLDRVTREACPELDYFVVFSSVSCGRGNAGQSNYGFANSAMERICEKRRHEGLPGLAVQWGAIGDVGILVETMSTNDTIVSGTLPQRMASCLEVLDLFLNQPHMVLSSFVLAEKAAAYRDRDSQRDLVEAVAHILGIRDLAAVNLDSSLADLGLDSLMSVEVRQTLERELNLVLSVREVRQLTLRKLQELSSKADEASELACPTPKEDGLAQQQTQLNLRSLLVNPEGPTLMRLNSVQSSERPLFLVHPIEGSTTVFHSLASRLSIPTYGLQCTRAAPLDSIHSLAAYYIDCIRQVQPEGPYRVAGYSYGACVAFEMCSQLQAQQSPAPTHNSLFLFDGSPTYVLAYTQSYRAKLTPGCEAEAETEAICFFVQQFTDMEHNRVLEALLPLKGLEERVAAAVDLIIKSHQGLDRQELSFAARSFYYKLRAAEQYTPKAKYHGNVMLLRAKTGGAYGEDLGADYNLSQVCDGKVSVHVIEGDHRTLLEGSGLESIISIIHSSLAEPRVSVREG
Summary of the method: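 Purified full-length human FASN (300 ng) incubated 60 min at room temperature with NADPH, [3H]-acetyl-CoA and malonyl-CoA in 100 mM KH2PO4 pH 7.5, 1 mM DTT; compound at 30 μM to 0.01 μM. [3H]-palmitate captured by SPA imaging beads; IC50 from 4-parameter fit, reported as pIC50.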

[3] = biological target: T2, FASN Keto-reductase Domain (Homo sapiens, UniProt P49327); experiment: Fatty Acid Synthase Keto-Reductase Domain (FASN KR) Inhibition; type: biochemical; conditions: mean where tested more than once; read-out: FASN K-R Domain pIC50 (converted)
T2 construct: 10 μL hFASN enzyme (full length, 300 ng, purified in house) and 360 μM NADPH; made in house
T2 sequence (P49327 whole entry, the tested form may be a part): as the sequence (P49327 whole entry) above
Summary of the method: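 Full-length human FASN (300 ng) in 100 mM KH2PO4 pH 7.5 with 360 μM NADPH and 180 mM ethyl acetoacetate (stock); A340 decrease read over 20 min at room temperature.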

[4] = tested on: A2780 ovarian cells; experiment: A2780 Ovarian Cell Proliferation Assay in Lipid Reduced Medium, with Palmitate (control); type: cell-based; conditions: Homo sapiens, A2780; lipid reduced medium, 25 μM palmitate, 96 h, MTT; read-out: Proliferation A2780 with Palmitate pIC50 (converted)
Summary of the method: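 A2780 cells were seeded in RPMI1640 with 10% FCS, then switched next day to medium with 10% lipid-reduced serum. Compound was added with final 25 μM palmitate, 0.2% fatty-acid-free BSA and 0.2% DMSO, and incubated 96 h at 37 °C. Read-out was MTT absorbance at 544 nm; pIC50 = −log(IC50) from curve fit.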

IC50 [1] | IC50 [2] | inhibition at 10 µM [2] | IC50 [3] | IC50 [4] | Compound
12.3 nM | 21.9 nM | 106% | 17.4 nM | 7240 nM | Cc1ccc(C(=O)N2CCC(c3ccc(-c4cnn(C)c4)cc3)CC2)cc1NC(=O)c1cnc(N2CCOCC2)nc1 [Compound 152, N-(2-methyl-5-(4-(4-(1-methyl-1H-pyrazol-4-yl)phenyl)piperidine-1-carbonyl)phenyl)-2-morpholinopyrimidine-5-carboxamide]
36.3 nM | 21.9 nM | 110% | 72.4 nM | 6610 nM | Cc1ccc(C(=O)N2CC(c3ccc(-c4cnn(C)c4)cc3)C2)cc1NC(=O)c1ccc(N2CCN(C)CC2)nc1 [Compound 141, N-(2-methyl-5-(3-(4-(1-methyl-1H-pyrazol-4-yl)phenyl)azetidine-1-carbonyl)phenyl)-6-(4-methylpiperazin-1-yl)nicotinamide]
97.7 nM | 31.6 nM | 101% | 95.5 nM | > 10000 nM | Cc1ccc(C(=O)N2CC(c3ccc(-c4cnn(C)c4)cc3)C2)cc1NC(=O)c1ccncc1 [Compound 139, N-(2-methyl-5-(3-(4-(1-methyl-1H-pyrazol-4-yl)phenyl)azetidine-1-carbonyl)phenyl)isonicotinamide]
36.3 nM | 18.6 nM | 105% | 38 nM | > 10000 nM | Cc1ccc(C(=O)N2CCC(c3ccc(-c4cnn(C)c4)cc3)CC2)cc1NC(=O)c1ccc(Cl)nc1 [Compound 102, 6-Chloro-N-(2-methyl-5-(4-(4-(1-methyl-1H-pyrazol-4-yl)phenyl)piperidine-1-carbonyl)phenyl)nicotinamide]
58.9 nM | 52.5 nM | 113% | 151 nM | > 10000 nM | COc1ccc(C(=O)N2CC(c3ccc(-c4cnn(C)c4)cc3)C2)cc1NC(=O)c1ccc(NC(C)C)nc1 [Compound 202, 6-(isopropylamino)-N-(2-methoxy-5-(3-(4-(1-methyl-1H-pyrazol-4-yl)phenyl)azetidine-1-carbonyl)phenyl)nicotinamide]
182 nM | 132 nM | 105% | 479 nM | > 10000 nM | Cc1ccc(C(=O)N2CCC(c3ccc(-c4cnn(C)c4)cc3)CC2)cc1NC(=O)C1CCN(C(C)C)C1 (stereo not shown) [Compound 207, 1-isopropyl-N-(2-methyl-5-(4-(4-(1-methyl-1H-pyrazol-4-yl)phenyl)piperidine-1-carbonyl)phenyl)pyrrolidine-3-carboxamide]
339 nM | 120 nM | 97% | 204 nM | > 10000 nM | Cc1ccc(C(=O)N2CCC(c3ccc(-c4cnn(C)c4)cc3)CC2)cc1NC(=O)c1ccccc1C(F)(F)F [Compound 132, N-(2-methyl-5-(4-(4-(1-methyl-1H-pyrazol-4-yl)phenyl)piperidine-1-carbonyl)phenyl)-2-(trifluoromethyl)benzamide]
8.91 nM | 25.7 nM | 116% | 60.3 nM | 6310 nM | CCc1ccc(C(=O)N2CCC(c3ccc(-c4cnn(C)c4)cc3)CC2)cc1NC(=O)c1ccc(NC(C)C)nc1 [Compound #256, N-(2-ethyl-5-(4-(4-(1-methyl-1H-pyrazol-4-yl)phenyl)piperidine-1-carbonyl)phenyl)-6-(isopropylamino)nicotinamide]
141 nM | 60.3 nM | 103% | 135 nM | > 10000 nM | Cc1ccc(C(=O)N2CCC(c3ccc(-c4cnn(C)c4)cc3)CC2)cc1NC(=O)c1cncs1 [Compound 174, N-(2-methyl-5-(4-(4-(1-methyl-1H-pyrazol-4-yl)phenyl)piperidine-1-carbonyl)phenyl)thiazole-5-carboxamide]
32.4 nM | 41.7 nM | 108% | 110 nM | > 10000 nM | CCCN1CCC(C(=O)Nc2cc(C(=O)N3CCC(c4ccc(-c5cnn(C)c5)cc4)CC3)ccc2C)CC1 [Compound 181, N-(2-methyl-5-(4-(4-(1-methyl-1H-pyrazol-4-yl)phenyl)piperidine-1-carbonyl)phenyl)-1-propylpiperidine-4-carboxamide]
91.2 nM | 37.2 nM | 96% | 74.1 nM | > 10000 nM | Cc1ccc(C(=O)N2CCC(c3ccc(-c4cnn(C)c4)cc3)CC2)cc1NC(=O)c1ccc2c(c1)OCO2 [Compound 133, N-(2-methyl-5-(4-(4-(1-methyl-1H-pyrazol-4-yl)phenyl)piperidine-1-carbonyl)phenyl)benzo[d][1,3]dioxole-5-carboxamide]
~23.4 nM | 15.8 nM | 114% | 39.8 nM | 7760 nM | Cc1ccc(C(=O)N2CC(c3ccc(-c4cnn(C)c4)cc3)C2)cc1NC(=O)c1ccc(N(C)C2CCN(C)CC2)nc1 [Compound 140, 6-(methyl(1-methylpiperidin-4-yl)amino)-N-(2-methyl-5-(3-(4-(1-methyl-1H-pyrazol-4-yl)phenyl)azetidine-1-carbonyl)phenyl)nicotinamide]
148 nM | 145 nM | 101% | 468 nM | > 10000 nM | Cc1ccc(C(=O)N2CCC(c3ccc(-c4cnn(C)c4)cc3)CC2)cc1NC(=O)C1CCN(C2CCC2)C1 (stereo not shown) [Compound 241, 1-cyclobutyl-N-(2-methyl-5-(4-(4-(1-methyl-1H-pyrazol-4-yl)phenyl)piperidine-1-carbonyl)phenyl)pyrrolidine-3-carboxamide]
~501 nM | 251 nM | 101% | 501 nM | > 10000 nM | CCN1CCC(C(=O)Nc2cc(C(=O)N3CCC(c4ccc(-c5cnn(C)c5)cc4)CC3)ccc2C)C1 (stereo not shown) [Compound 185, 1-ethyl-N-(2-methyl-5-(4-(4-(1-methyl-1H-pyrazol-4-yl)phenyl)piperidine-1-carbonyl)phenyl)pyrrolidine-3-carboxamide]
13.8 nM | 25.7 nM | 112% | 50.1 nM | > 10000 nM | Cc1ccc(C(=O)N2CCC(c3ccc(-c4cnn(C)c4)cc3)CC2)cc1NC(=O)C1CCN(C2CCCCC2)CC1 [Compound 177, 1-cyclohexyl-N-(2-methyl-5-(4-(4-(1-methyl-1H-pyrazol-4-yl)phenyl)piperidine-1-carbonyl)phenyl)piperidine-4-carboxamide]
13.2 nM | 28.8 nM | 105% | 46.8 nM | > 10000 nM | Cc1ccc(C(=O)N2CCC(c3ccc(-c4cnn(C)c4)cc3)CC2)cc1NC(=O)c1ccc(N2CCN[C@@H](CO)C2)nc1 [Compound 163, (3R)-6-(3-(hydroxymethyl)piperazin-1-yl)-N-(2-methyl-5-(4-(4-(1-methyl-1H-Pyrazol-4-yl)phenyl)piperidine-1-carbonyl)phenyl)nicotinamide]
407 nM | 162 nM | 97% | 282 nM | ~6170 nM | CCCCC(C)N1CC(C(=O)Nc2cc(C(=O)N3CCC(c4ccc(-c5cnn(C)c5)cc4)CC3)ccc2C)C1 (stereo not shown) [Compound 196, 1-(hexan-2-yl)-N-(2-methyl-5-(4-(4-(1-methyl-1H-pyrazol-4-yl)phenyl)piperidine-1-carbonyl)phenyl)azetidine-3-carboxamide]
33.9 nM | 30.2 nM | 111% | 16.6 nM | 5500 nM | Cc1ccc(C(=O)N2CC(c3ccc(-c4ccnc5ccccc45)cc3)C2)cc1NC(=O)c1ccc(NC(C)C)nc1 [Compound 39, 6-(isopropylamino)-N-(2-methyl-5-(3-(4-(Quinolin-4-yl)phenyl)azetidine-1-carbonyl)phenyl)nicotinamide]
79.4 nM | 53.7 nM | 105% | 170 nM | > 10000 nM | Cc1ccc(C(=O)N2CCC(c3ccc(-c4cnn(C)c4)cc3)CC2)cc1NC(=O)C1CCN(CC(C)(C)C)C1 (stereo not shown) [Compound 192, N-(2-methyl-5-(4-(4-(1-methyl-1H-pyrazol-4-yl)phenyl)piperidine-1-carbonyl)phenyl)-1-neopentylpyrrolidine-3-carboxamide]
1170 nM | 148 nM | 101% | 708 nM | > 10000 nM | Cc1ccc(C(=O)N2CCC(c3ccc(-c4cnn(C)c4)cc3)CC2)cc1NC(=O)C1CCCO1 (stereo not shown) [Compound 151, N-(2-methyl-5-(4-(4-(1-methyl-1H-pyrazol-4-yl)phenyl)piperidine-1-carbonyl)phenyl)tetrahydrofuran-2-carboxamide]
